Ends that are not written are not given here.
System: human red blood cells (hRBCs)
Experiment: Hemolytic activity
Type: cell-based
Description: The cytotoxicity of PvAMP66 was assessed in vitro against human red blood cells (hRBCs) and human peripheral blood mononuclear cells (hPBMCs) using concentrations of 1.56–200 µM. At the highest concentration, PvAMP66 induced 60% hemolysis in human erythrocytes (Figure 3a), and a decrease in viability of approximately 40% in the hPBMCs (Figure 3b). […] Ratios between CC50 or HC50, and the IC50 values registered for the bacterial strains, indicate that PvAMP66 has higher selectivity for interacting with prokaryotic membranes (Table 4).
Human red blood cells (hRBCs) were obtained from the Blood Bank of the School of Microbiology of the University of Antioquia in Medellín, Colombia. Ten mL of hRBCs were diluted in 10 mL of PSB pH 7.20, mixed by inversion, and centrifuged five times at 4 °C, 1000× g for 10 min (Universal 32 R, Hettich Group, Kirchlengern, Westphalia, Germany). […] Then, the supernatant was transferred to 96-well flat bottom culture plates without transferring of the RBC pellet, and hemoglobin release was measured at 420 nm (Multiskan SkyHigh, ThermoFisher Scientific, Waltham, MA, USA). All peptides were evaluated in three independent assays. The hemolysis percentage was calculated as follows: Hemolysis %=AbsPEPTIDE−Median AbsPBS/Median AbsTRITON−Median AbsPBS×100

WKKIKKFF-NH2 [PvAMP66]
HC50 (Hemolytic Concentration 50) (10% v/v hRBC in PBS pH 7.20, 1 h 37 °C, hemoglobin at 420 nm, 1.56–200 µM, logistic regression, 95% CI in parentheses, three independent assays): 132.96 (118.82–151.21) µM
hemolysis (human erythrocytes, highest concentration (200 µM), 1 h 37 °C): 60%

Reference: paper PMC10812672, “Short Antimicrobial Peptide Derived from the Venom Gland Transcriptome of Pamphobeteus verdolaga Increases Gentamicin Susceptibility of Multidrug-Resistant Klebsiella pneumoniae” (Antibiotics, 2023)
